Assay results from patent publication US20100093847A1, “ANTI-OBESITY ACTIVE AGENT AND ANTI-OBESITY METHOD” (priority 2005, published 2010).

Columns and labels:
[1] = tested on: GPDH (glycerol-3-phosphate-dehydrogenase); test: Measurement of GPDH activity in differentiating 3T3-L1 preadipocytes; format: cell-based; details: FIG. 5; compared with no addition
Procedure: (§1) Cell Culture: 3T3-L1 preadipocytes were incubated using DMRM culture medium containing 10% (by volume) of FBS at 37° C. in the presence of CO2 (5%). In this connection, as the FBS, one which had been inactivated at 56° C. for 30 minutes was used. As the cells, those which were unused (naïve) and which had been kept in liquid nitrogen were used in each experiment. On a 96 well microplate, 5×10^4 cells of the 3T3-L1 preadipocytes were seeded per well and pre-incubated for 48 hours.
(§2) Then, the culture medium was removed from the wells, and DMEM culture medium containing insulin (10 μg/ml), dexametazone (0.25 μg/ml) and IBMX (0.5 mM) was added to the wells, and incubation was further performed for 48 hours. Thereafter, differentiation to adipocytes was induce while repeating medium replacement at intervals of 4 days with the use of DMEM culture medium containing 5 μg/ml of insulin only. In this procedure, fucoxanthin was added to the culture medium to examine influence thereof on the differentiation induction.
Measurement of GPDH Activity: For measurement of GPDH (glycerol-3-phosphate-dehydrogenase) activity, a GDP H activity measuring kit (manufactured by Hokudo Co., Ltd.) was used. Specifically, 3T3-L1 preadipocytes were pre-incubated on a 24 well microplate) for 48 hours, and then differentiation to adipocytes was induced in the same manner as described above. […]

3T3-L1 preadipocytes = test: Quantitative determination of intracellular lipids with Oilred O during differentiation of 3T3-L1 preadipocytes to adipocytes; format: cell-based; details: FIG. 3 and FIG. 4; added to culture medium during differentiation induction
Procedure: as §1
as §2, with “In this procedure, fucoxanthin was added to the culture medium to examine influence thereof on the differentiation induction.” left out
Quantitative Determination of Intracellular Lipids with Oilred O: The cells incubated in the 96 well microplate were immobilized with formalin, and then an oilred O solution was added thereto to stain lipids in the cells. […] Subsequently, isopropanol was added to each of the wells to elute the pigment (colorant), and absorbance, i.e., optical density at 490 nm was measured using a microplate reader.

KK-Ay mice = test: Animal experiments: KK-Ay mice fed feed containing fucoxanthinol; format: in vivo
Procedure: Animals and Feed: For the animal experiments, KK-Ay mice (female; 3-week-old) were used. Feed for the experiments was prepared in accordance with AIN-93G composition (formulation). Amount of lipid in the feed was 13.5%. In the case where fucoxanthinol was added, 0.2% of the lipid in the feed was replaced with fucoxanthinol. After the preparation, the feed was immediately vacuum-packed and stored at −20° C. or lower until feeding.
Breeding and Analysis: Preliminary Breeding was conducted for a week using the feed for the control group, and individuals which grew with no problem were divided into groups each consisting of 6 mice in such a manner that there were no substantial unevennesses in body weight among the groups. With respect to each of the groups, two mice were housed and bred in each plastic cage spread with sterilized wood chips to cover the floor. In the breeding cage, temperature and humidity were kept at 23±1° C. and 50%, respectively, and each of light and dark periods was 12 hours. The mice were allowed to freely take (ingest) the feed and water, and the breeding with each of the feeds for the experiments was carried out for 24 days.
After termination of the feeding period, the mice were fasted for 12 hours. Thereafter, blood samples were collected from neck vessels in the presence of EDTA under anesthesia with (ethyl) ether. After the collection of blood samples, organs were immediately harvested and washed well with physiological saline to sufficiently clear blood therefrom. Livers were weighed and then stored at −40° C. or lower until subjected to analyses. Leptin concentrations and blood-sugar levels in blood were measured using a commercially available kit.

[2] = tested on: large intestine cancer cells; details: according to Non-Patent Document 1; cited from earlier work
adipocytes (fat cells) = details: according to Non-Patent Document 2; cited from earlier work
[3] = 24 days feeding, versus control group
[4] = after 24 days feeding, versus control group

Compound	relative GPDH activity (relative amount of adipocytes, preadipocytes = 1) [1]	fat (lipid) accumulation associated with differentiation of 3T3-L1 preadipocytes to adipocytes (optical density at 490 nm, Oilred O) (3T3-L1 preadipocytes)	amount of feed intake (KK-Ay mice; [3])	increase in body weight (KK-Ay mice; [3])	weight of hepatic lipid (KK-Ay mice; [4])	weight of liver (KK-Ay mice; [4])	weight of small intestine (KK-Ay mice; [4])	abnormalities in feed intake, glossiness of hair or action (KK-Ay mice; breeding period)	antiproliferative activity / proliferation of large intestine cancer cells [2]	differentiation suppressing activity on adipocytes (adipocytes (fat cells))	weight of visceral fat per 100 g of body weight (KK-Ay mice; FIG. 6, 0.2% of feed lipid replaced, 24 days, versus control group)	leptin concentration in blood (KK-Ay mice; FIG. 7, 24 days feeding, versus control group)	blood sugar level (KK-Ay mice; FIG. 8, 24 days feeding, versus control group)
fucoxanthin	no significant differences	apparently lower than that of fucoxanthinol	no significant differences	no significant differences	no significant differences	no significant differences	no significant differences	no abnormalities	far stronger antiproliferative activity than that of troglytazone	has differentiation suppressing activity on adipocytes			
C\C(C=C=C1C(C)(C)C[C@H](O)C[C@@]1(C)O)=C/C=C/C(C)=C/C=C/C=C(C)/C=C/C=C(\C)C(=O)C[C@@]12O[C@]1(C)C[C@@H](O)CC2(C)C [fucoxanthinol]	lowered	markedly controlled									significantly reduced	significantly reduced	reduced
